Laboratory results from publication PMC4335503, “Novel Inhibitors of Cholesterol Degradation in Mycobacterium tuberculosis Reveal How the Bacterium’s Metabolism Is Constrained by the Intracellular Environment” (PLoS Pathogens, 2015).

Legend:
[1] = target: T1, PrpC (2-methylcitrate synthase, Rv1131) (Mycobacterium tuberculosis, UniProt I6Y9Q3); experiment: biochemical
T1 construct: full-length, C-terminal 6x-His tag

[2] = target: HsaAB (HsaA, of the two-component flavin-dependent hydroxylase) (Mycobacterium tuberculosis, UniProt P9WJA1); experiment: biochemical
Sequence of HsaAB (HsaA, of the two-component flavin-dependent hydroxylase) (P9WND9 whole entry): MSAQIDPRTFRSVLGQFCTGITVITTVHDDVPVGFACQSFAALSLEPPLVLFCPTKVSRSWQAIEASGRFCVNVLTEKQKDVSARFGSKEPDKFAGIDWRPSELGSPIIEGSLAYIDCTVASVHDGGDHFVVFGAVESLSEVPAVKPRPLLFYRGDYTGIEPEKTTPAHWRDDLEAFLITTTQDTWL
Sequence of HsaAB (HsaA, of the two-component flavin-dependent hydroxylase) (P9WJA1 whole entry): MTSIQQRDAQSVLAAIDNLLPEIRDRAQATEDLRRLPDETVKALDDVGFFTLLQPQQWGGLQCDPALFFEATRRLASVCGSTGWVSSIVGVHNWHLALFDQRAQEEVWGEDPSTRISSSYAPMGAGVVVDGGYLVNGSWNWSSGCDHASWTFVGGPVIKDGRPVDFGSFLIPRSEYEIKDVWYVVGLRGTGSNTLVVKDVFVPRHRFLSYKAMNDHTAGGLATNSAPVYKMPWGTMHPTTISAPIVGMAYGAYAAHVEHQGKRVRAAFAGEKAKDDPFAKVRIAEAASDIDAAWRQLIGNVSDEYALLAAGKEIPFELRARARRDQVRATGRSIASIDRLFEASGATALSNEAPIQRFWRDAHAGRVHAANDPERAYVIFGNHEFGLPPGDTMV

T1 sequence (I6Y9Q3 whole entry): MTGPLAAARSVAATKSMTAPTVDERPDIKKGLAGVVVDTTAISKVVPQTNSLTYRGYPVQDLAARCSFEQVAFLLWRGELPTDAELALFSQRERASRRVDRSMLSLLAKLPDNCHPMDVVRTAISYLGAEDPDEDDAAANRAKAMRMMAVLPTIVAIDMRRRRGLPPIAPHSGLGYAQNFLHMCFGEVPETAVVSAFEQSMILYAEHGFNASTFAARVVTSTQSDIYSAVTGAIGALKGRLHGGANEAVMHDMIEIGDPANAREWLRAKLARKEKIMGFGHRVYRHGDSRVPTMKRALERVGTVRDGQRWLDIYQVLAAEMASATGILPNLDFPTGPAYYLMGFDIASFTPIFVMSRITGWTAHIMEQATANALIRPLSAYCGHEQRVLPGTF

Structure (SMILES) | IC50 [1] | IC50 [2]
Cc1nnc(NS(=O)(=O)c2ccc(NC(=O)c3cc(-c4ccc(Cl)cc4)oc3C(F)(F)F)cc2)s1 [V-13–009920, 5-(4-chlorophenyl)-N-(4-(N-(5-methyl-1,3,4-thiadiazol-2-yl)sulfamoyl)phenyl)-2-(trifluoromethyl)furan-3-carboxamide] | 4 ± 1.1 µM | 
Cc1noc(C)c1C(=O)Nc1nnc(-c2ccccc2)s1 [V-13–011503, 3,5-dimethyl-N-(5-phenyl-1,3,4-thiadiazol-2-yl)-1,2-oxazole-4-carboxamide] |  | 11 ± 2 µM
Cc1cc(=O)n2[nH]c(-c3ccc(F)cc3)nc2n1 [V-13–012725, 2-(4-fluorophenyl)-5-methyl-1H-[1,2, 4]triazolo[1,5-a]pyrimidin-7-one] |  | 5 ± 0.8 µM
